ChEMBL document CHEMBL1141386, “Metabolites from the Lichen Ochrolechia parella growing under two different heliotropic conditions” (J Nat Prod, 2007)

test system: B16; assay: Cytotoxicity against murine B16 cells by MTT assay; type: cell-based; settings: Mus musculus

| Compound | IC50 [µM] |
| --- | --- |
| COc1cccc2c1C(=O)c1c(O)c3c(c(O)c1C2=O)C[C@@](O)(C(=O)CO)C[C@@H]3O[C@H]1C[C@H](N)[C@H](O)[C@H](C)O1 [DOXORUBICIN] | 0.1 |
| CC(C)[C@@H](C)/C=C/[C@@H](C)[C@H]1CC[C@@H]2[C@]1(C)CC[C@H]1[C@]23C=C[C@]2(C[C@@H](O)CC[C@]12C)OO3 [ERGOSTEROL PEROXIDE] | 77.9 |
| CCCCCC(=O)Cc1cc(O)cc2c1C(=O)Oc1cc(O)c(C(=O)O)c(CC(=O)CCCCC)c1O2 | 10.3 |
| Cc1cc(O)cc2c1C(=O)Oc1cc3c(c(O)c1O2)C(=O)OC3 [VARIOLARIC ACID] | 38.7 |
